From ChEMBL document CHEMBL5257135, “Synthesis of Artesunic Acid-Coumarin Hybrids as Potential Antimelanoma Agents” (ACS Med Chem Lett, 2023)
Active and inactive are the calls of the source. The rule behind the calls is not given here.

What was measured:
[1] = Selectivity index, ratio of IC50 for cytotoxicity against human C3PV cells to IC50 for anticancer activity against human SK-MEL3 cells; type: toxicity, cell-based; details: C3PV cells and SK-MEL3 cells, read-out: Ratio IC50
SK-MEL-28 [2] = assay: Anticancer activity against human SK-MEL-28 cells assessed as reduction in cell viability incubated for 24 hrs by MTT assay; type: functional, cell-based; details: SK-MEL-28, 24 h
SK-MEL3 [3] = assay: Anticancer activity against human SK-MEL3 cells assessed as reduction in cell viability incubated for 24 hrs by MTT assay; type: functional, cell-based; details: SK-MEL3, 24 h
[4] = Cytotoxicity against human C3PV cells assessed as reduction in cell viability incubated for 24 hrs by MTT assay; type: toxicity, cell-based; details: for IC50 at 24 h: human, C3PV cells; for IC50: c3pv
[5] = Drug localization in human SK-MEL3 cell nucleus incubated for 24 hrs by propidium iodide staining based Confocal microscopy; type: ADME, subcellular; details: sk-mel3, 24 h
SK-MEL3 [6] = assay: Anticancer activity against human SK-MEL3 cells assessed as reduction in cell viability incubated for 24 hrs in presence of Artesunic acid by MTT assay; type: functional, cell-based; details: SK-MEL3, 24 h
C3PV [7] = assay: Induction of apoptosis in human C3PV cells assessed as dead cells at 0.05 uM by fluorescein diacetate, propidium iodide, and Hoechst staining based confocal microscopy; type: functional, cell-based
[8] = Cytotoxicity against human C3PV cells assessed as reduction in cell proliferation at 0.05 uM to incubated for 24 hrs by trypan blue exclusion assay; type: toxicity, cell-based
SK-MEL3 [9] = assay: Antiproliferative activity against human SK-MEL3 cells assessed as reduction in cell proliferation at 0.05 uM to incubated for 24 hrs by trypan blue exclusion assay; type: functional, cell-based
SK-MEL-28 [10] = assay: Induction of apoptosis in human SK-MEL-28 cells assessed as dead cells at 0.05 uM by fluorescein diacetate, propidium iodide, and Hoechst staining based confocal microscopy; type: functional, cell-based
SK-MEL3 [11] = assay: Induction of apoptosis in human SK-MEL3 cells assessed as dead cells at 0.05 uM by fluorescein diacetate, propidium iodide, and Hoechst staining based confocal microscopy; type: functional, cell-based
SK-MEL-28 [12] = assay: Antiproliferative activity against human SK-MEL-28 cells assessed as reduction in cell proliferation at 0.05 uM to incubated for 24 hrs by trypan blue exclusion assay; type: functional, cell-based
SK-MEL3 [13] = assay: Anticancer activity against human SK-MEL3 cells assessed as reduction in cell viability incubated for 24 hrs in presence of deferoxamine by MTT assay; type: functional, cell-based; details: SK-MEL3, 24 h
SK-MEL3 [14] = assay: Induction of apoptosis in human SK-MEL3 cells assessed as dead cells at 0.015 uM by fluorescein diacetate, propidium iodide, and Hoechst staining based confocal microscopy; type: functional, cell-based
[15] = Cytotoxicity against human C3PV cells assessed as reduction in cell proliferation at 0.015 uM to incubated for 24 hrs by trypan blue exclusion assay; type: toxicity, cell-based
SK-MEL-28 [16] = assay: Induction of apoptosis in human SK-MEL-28 cells assessed as dead cells at 0.015 uM by fluorescein diacetate, propidium iodide, and Hoechst staining based confocal microscopy; type: functional, cell-based
C3PV [17] = assay: Induction of apoptosis in human C3PV cells assessed as dead cells at 0.015 uM by fluorescein diacetate, propidium iodide, and Hoechst staining based confocal microscopy; type: functional, cell-based
SK-MEL-28 [18] = assay: Antiproliferative activity against human SK-MEL-28 cells assessed as reduction in cell proliferation at 0.015 uM to incubated for 24 hrs by trypan blue exclusion assay; type: functional, cell-based
SK-MEL3 [19] = assay: Antiproliferative activity against human SK-MEL3 cells assessed as reduction in cell proliferation at 0.015 uM to incubated for 24 hrs by trypan blue exclusion assay; type: functional, cell-based

SMILES | selectivity ratio [1] | IC50 (SK-MEL-28 [2]) [µM] | IC50 (SK-MEL3 [3]) [µM] | IC50 at 24 h [4] [µM] | further results
Nc1ccc2c(C(F)(F)F)cc(=O)oc2c1 | 29.4 | 0.98 | 0.93 | 27.4 | Drug uptake [5]: Active
O=c1ccc2cc(O)ccc2o1 [6-HYDROXYCOUMARIN] | 1.6 | 0.45 | 1.85 | 2.95 | IC50 (SK-MEL3 [6]): 1.14 µM
COc1cc2ccc(=O)oc2cc1OC(=O)CCC(=O)O[C@@H]1O[C@@H]2C[C@]3(C)CC[C@H]4[C@H](C)CC[C@@H]([C@H]1C)[C@@]24OO3 | 0.74 | 132 | 4.1 | 3.05 | –
COc1cc2ccc(=O)oc2cc1O [SCOPOLETIN] | 1.1 | 3.43 | 1.5 | 1.6 | –
C[C@H]1[C@H](OC(=O)CCC(=O)Oc2cc3ccc(=O)oc3cc2O)O[C@@H]2C[C@]3(C)CC[C@H]4[C@H](C)CC[C@@H]1[C@@]24OO3 | 361 | 97.9 | 1.9 | – | IC50 [4]: 686 µM
O=c1ccc2cc(O)c(O)cc2o1 [ESCULETIN] | 15.2 | 0.96 | 1.7 | 25.8 | –
C[C@H]1[C@H](OC(=O)CCC(=O)Oc2cc(=O)oc3ccccc23)O[C@@H]2C[C@]3(C)CC[C@H]4[C@H](C)CC[C@@H]1[C@@]24OO3 | 119 | 72.8 | 2.7 | 321 | –
C[C@H]1[C@H](OC(=O)CCC(=O)Oc2cc3ccccc3oc2=O)O[C@@H]2C[C@]3(C)CC[C@H]4[C@H](C)CC[C@@H]1[C@@]24OO3 | 5.64 | 38 | 1 | 5.64 | –
O=c1cc(O)c2ccccc2o1 [4-HYDROXYCOUMARINS] | 0.29 | 1.3 | 2.1 | 0.6 | –
Cc1cc(=O)oc2cc(O)ccc12 [HYMECROMONE] | 4.37 | 0.58 | 1.6 | 7 | –
CC(=O)O[C@H]1C(=O)[C@@]2(C)[C@H]([C@H](OC(=O)c3ccccc3)[C@]3(O)C[C@H](OC(=O)[C@H](O)[C@@H](NC(=O)c4ccccc4)c4ccccc4)C(C)=C1C3(C)C)[C@]1(OC(C)=O)CO[C@@H]1C[C@@H]2O [PACLITAXEL] | 16.7 | 1.07 | 4.73 | 78.9 | –
O=c1oc2ccccc2cc1O [3-HYDROXYCOUMARIN] | 1.8 | 1.2 | 6.8 | 12.5 | –
C[C@H]1[C@H](OC(=O)CCC(=O)Oc2ccc3ccc(=O)oc3c2)O[C@@H]2C[C@]3(C)CC[C@H]4[C@H](C)CC[C@@H]1[C@@]24OO3 | 4320 | 2.2 | 0.05 | 216 | Activity (C3PV [7]): inactive; Activity [8]: Non-Toxic; Activity (SK-MEL3 [9]): Active; Activity (SK-MEL-28 [10]): Active; Activity (SK-MEL3 [11]): Active; Activity (SK-MEL-28 [12]): inactive; IC50 (SK-MEL3 [13]): 0.118 µM
O=c1cc(C(F)(F)F)c2ccc(O)cc2o1 | 4.3 | 1.1 | 0.58 | 2.5 | –
C[C@H]1[C@H](OC(=O)CCC(=O)Nc2ccc3c(C(F)(F)F)cc(=O)oc3c2)O[C@@H]2C[C@]3(C)CC[C@H]4[C@H](C)CC[C@@H]1[C@@]24OO3 | 0.16 | 1090 | 1.3 | 0.21 | Drug uptake [5]: Active
C[C@H]1[C@H](OC(=O)CCC(=O)Oc2ccc3c(C(F)(F)F)cc(=O)oc3c2)O[C@@H]2C[C@]3(C)CC[C@H]4[C@H](C)CC[C@@H]1[C@@]24OO3 | 294 | 6.84 | 3.6 | – | IC50 [4]: 1060 µM
C[C@H]1[C@H](OC(=O)CCC(=O)Oc2ccc3oc(=O)ccc3c2)O[C@@H]2C[C@]3(C)CC[C@H]4[C@H](C)CC[C@@H]1[C@@]24OO3 | 8810 | 576 | 0.015 | 132 | Activity (SK-MEL3 [14]): Active; Activity [15]: Non-Toxic; IC50 (SK-MEL3 [13]): 0.001 µM; Activity (SK-MEL-28 [16]): inactive; Activity (C3PV [17]): inactive; Activity (SK-MEL-28 [18]): inactive; Activity (SK-MEL3 [19]): Active
O=c1ccc2ccc(O)cc2o1 [UMBELLIFERONE] | 9.9 | 0.48 | 2.1 | 20.9 | IC50 (SK-MEL3 [6]): 1.6 µM
Cc1cc(=O)oc2cc(OC(=O)CCC(=O)O[C@@H]3O[C@@H]4C[C@]5(C)CC[C@H]6[C@H](C)CC[C@@H]([C@H]3C)[C@@]46OO5)ccc12 | 0.25 | 13.5 | 2.6 | 0.66 | –
